How the values were obtained:
CDK9/CycT1 = molecular target: T1, CDK9/CycT1 (Homo sapiens, UniProt P50750); experiment: CDK9/CycT1 kinase assay (TR-FRET); type: biochemical; conditions: Method 1, 10 μM ATP
T1 construct: Recombinant full-length His-tagged human CDK9 and CycT1; His; purchased Invitrogen PV4131; host or cells: insect cells
Procedure, shortened: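 Full-length His-tagged human CDK9/CycT1 (insect-cell expressed), 15 min compound pre-incubation, then 25 min at 22 °C with 10 µM ATP (final) and 1 µM biotinylated peptide (final) in Tris pH 8.0/MgCl2 buffer. Phospho-substrate detected by TR-FRET (anti-RB pSer807/pSer811, Eu anti-mouse IgG, streptavidin-XL665); 665/622 nm emission ratio as read-out.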

[1] = test system: NCI-H460, human non-small cell lung carcinoma cells; experiment: Proliferation assay (crystal violet), NCI-H460; type: cell-based; conditions: read-out: Inhibition of H460 cell proliferation (activity range)
Protocol: Cultivated tumour cells (NCI-H460, human non-small cell lung carcinoma cells, ATCC HTB-177; DU 145, hormone-independent human prostate carcinoma cells, ATCC HTB-81; HeLa-MaTu, human cervical carcinoma cells, EPO-GmbH, Berlin; HeLa-MaTu-ADR, multidrug-resistant human cervical carcinoma cells, EPO-GmbH, Berlin; HeLa human cervical tumour cells, ATCC CCL-2; Caco-2 human colorectal carcinoma, ATCC HTB-37; B16F10 mouse melanoma cells, ATCC CRL-6475) were plated at a density of 5000 cells/well (DU145, HeLa-MaTu-ADR), 3000 cells/well (NCI-H460, HeLa-MaTu, HeLa), 1500 cells/well (Caco-2), or 1000 cells/well (B16F10) in a 96-well multititer plate in 200 μL of their respective growth medium supplemented 10% fetal calf serum. After 24 hours, the cells of one plate (zero-point plate) were stained with crystal violet (see below), while the medium of the other plates was replaced by fresh culture medium (200 μl), to which the test substances were added in various concentrations (0 μM, as well as in the range of 0.001-10 μM; the final concentration of the solvent dimethyl sulfoxide was 0.5%). The cells were incubated for 4 days in the presence of test substances. Cell proliferation was determined by staining the cells with crystal violet: the cells were fixed by adding 20 μl/measuring point of an 11% glutaric aldehyde solution for 15 minutes at room temperature. After three washing cycles of the fixed cells with water, the plates were dried at room temperature. The cells were stained by adding 100 μl/measuring point of a 0.1% crystal violet solution (pH 3.0). After three washing cycles of the stained cells with water, the plates were dried at room temperature. The dye was dissolved by adding 100 μl/measuring point of a 10% acetic acid solution. The extinction was determined by photometry at a wavelength of 595 nm. The change of cell number, in percent, was calculated by normalization of the measured values to the extinction values of the zero-point plate (=0%) and the extinction of the untreated (0 μm) cells (=100%). The IC50 values were determined by means of a 4 parameter fit.

T1 sequence (P50750 whole entry): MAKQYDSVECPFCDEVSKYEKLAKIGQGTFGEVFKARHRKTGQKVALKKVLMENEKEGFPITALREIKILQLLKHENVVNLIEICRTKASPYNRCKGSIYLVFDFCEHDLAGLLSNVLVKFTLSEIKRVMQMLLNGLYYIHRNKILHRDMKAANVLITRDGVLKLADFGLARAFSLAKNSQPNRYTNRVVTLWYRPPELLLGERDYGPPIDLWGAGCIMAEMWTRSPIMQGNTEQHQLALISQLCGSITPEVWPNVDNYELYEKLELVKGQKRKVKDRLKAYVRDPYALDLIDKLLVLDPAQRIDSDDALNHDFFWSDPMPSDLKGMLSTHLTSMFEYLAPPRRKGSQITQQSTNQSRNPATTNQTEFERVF
T1 sequence (O60563 whole entry partner): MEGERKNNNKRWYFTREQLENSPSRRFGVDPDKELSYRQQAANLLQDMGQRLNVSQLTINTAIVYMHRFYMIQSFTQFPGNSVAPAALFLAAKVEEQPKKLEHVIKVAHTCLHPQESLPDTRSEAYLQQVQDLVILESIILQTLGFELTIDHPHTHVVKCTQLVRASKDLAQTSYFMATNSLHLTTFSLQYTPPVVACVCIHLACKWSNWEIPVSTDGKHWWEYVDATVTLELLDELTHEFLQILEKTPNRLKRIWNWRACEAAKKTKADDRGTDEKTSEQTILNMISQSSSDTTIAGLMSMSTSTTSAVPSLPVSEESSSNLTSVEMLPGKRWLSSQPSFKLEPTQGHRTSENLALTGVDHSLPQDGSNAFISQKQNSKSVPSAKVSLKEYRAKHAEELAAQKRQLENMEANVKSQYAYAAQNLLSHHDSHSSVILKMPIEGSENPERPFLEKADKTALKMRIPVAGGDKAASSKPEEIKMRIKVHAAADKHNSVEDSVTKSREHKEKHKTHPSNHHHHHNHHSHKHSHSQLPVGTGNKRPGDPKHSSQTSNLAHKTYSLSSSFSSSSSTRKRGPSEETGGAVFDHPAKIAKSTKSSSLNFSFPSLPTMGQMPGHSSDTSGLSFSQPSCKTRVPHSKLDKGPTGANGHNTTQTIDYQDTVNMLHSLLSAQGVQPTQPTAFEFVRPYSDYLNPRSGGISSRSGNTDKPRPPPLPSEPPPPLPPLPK

Row | Structure (SMILES) | IC50 (CDK9/CycT1) | IC50 [1]
1 | COc1cc(F)c(F)cc1-c1ncnc(Nc2cccc(CS(C)(=O)=O)c2)n1 [Example 1, 4-(4,5-Difluoro-2-methoxyphenyl)-N-{3-[(methylsulfonyl)methyl]phenyl}-1,3,5-triazin-2-amine] | 14 nM | 910 nM
2 | COc1cc(F)ccc1-c1ncnc(Nc2cccc(CS(C)(=O)=O)c2)n1 [Example 3, 4-(4-Fluoro-2-methoxyphenyl)-N-{3-[(methylsulfonyl)methyl]phenyl}-1,3,5-triazin-2-amine] | 24 nM | 1200 nM
3 | CS(=O)(=O)Cc1cccc(Nc2ncnc(-c3ccc(F)cc3OCc3ccccc3)n2)c1 [Example 4, 4-[2-(Benzyloxy)-4-fluorophenyl]-N-{3-[(methylsulfonyl)methyl]phenyl}-1,3,5-triazin-2-amine] | 3 nM | 150 nM
4 | COc1cc(F)ccc1-c1ncnc(Nc2cccc(CS(=O)(=O)C3CCCCC3)c2)n1 [Example 9, N-{3-[(Cyclohexylsulfonyl)methyl]phenyl}-4-(4-fluoro-2-methoxyphenyl)-1,3,5-triazin-2-amine] | 10 nM | 690 nM
5 | COc1cc(F)ccc1-c1ncnc(Nc2cc(F)cc(CS(C)(=O)=O)c2)n1 [Example 10, 4-(4-Fluoro-2-methoxyphenyl)-N-{3-fluoro-5-[(methylsulfonyl)methyl]phenyl}-1,3,5-triazin-2-amine] | 6 nM | 220 nM
6 | CS(=O)(=O)Cc1cccc(Nc2ncnc(-c3cccc4c3OCCC4)n2)c1 [Example 12, 4-(3,4-Dihydro-2H-chromen-8-yl)-N-{3-[(methylsulfonyl)methyl]phenyl}-1,3,5-triazin-2-amine] | 7 nM | 410 nM
7 | CS(=O)(=O)Cc1cccc(Nc2ncnc(-c3cccc4c3OCCO4)n2)c1 [Example 18, 4-(2,3-Dihydro-1,4-benzodioxin-5-yl)-N-{3-[(methylsulfonyl)methyl]phenyl}-1,3,5-triazin-2-amine] | 8 nM | 730 nM
8 | CS(=O)(=O)Cc1cccc(Nc2ncnc(-c3ccccc3OCc3cccc(Cl)c3)n2)c1 [Example 28, 4-{2-[(3-Chlorobenzyl)oxy]phenyl}-N-{3-[(methylsulfonyl)methyl]phenyl}-1,3,5-triazin-2-amine] | 3 nM | 370 nM
9 | CS(=O)(=O)Cc1cccc(Nc2ncnc(-c3ccc(Cl)cc3OC3CCCC3)n2)c1 [Example 29, 4-[4-Chloro-2-(cyclopentyloxy)phenyl]-N-{3-[(methylsulfonyl)methyl]phenyl}-1,3,5-triazin-2-amine] | 610 nM | 730 nM
10 | CS(=O)(=O)Cc1cccc(Nc2ncnc(-c3cc(F)ccc3OCc3cccc(F)c3)n2)c1 [Example 31, 4-{5-Fluoro-2-[(3-fluorobenzyl)oxy]phenyl}-N-{3-[(methylsulfonyl)methyl]phenyl}-1,3,5-triazin-2-amine] | 4 nM | 200 nM
11 | COc1cc(F)ccc1-c1ncnc(Nc2ccc(F)c(CS(C)(=O)=O)c2)n1 [Example 33, 4-(4-Fluoro-2-methoxyphenyl)-N-{4-fluoro-3-[(methylsulfonyl)methyl]phenyl}-1,3,5-triazin-2-amine] | 6 nM | 340 nM
12 | COc1cc(F)ccc1-c1ncnc(Nc2cccc(CS(=O)(=O)C3CC3)c2)n1 [Example 40, N-{3-[(Cyclopropylsulfonyl)methyl]phenyl}-4-(4-fluoro-2-methoxyphenyl)-1,3,5-triazin-2-amine] | 14 nM | 600 nM
13 | CCOc1cc(F)ccc1-c1ncnc(Nc2cccc(CS(C)(=O)=O)c2)n1 [Example 42, 4-(2-Ethoxy-4-fluorophenyl)-N-{3-[(methylsulfonyl)-methyl]phenyl}-1,3,5-triazin-2-amine] | 5 nM | 290 nM
14 | CCCCOc1cc(F)ccc1-c1ncnc(Nc2cccc(CS(C)(=O)=O)c2)n1 [Example 44, 4-(2-Butoxy-4-fluorophenyl)-N-{3-[(methylsulfonyl)-methyl]phenyl}-1,3,5-triazin-2-amine] | 9 nM | 440 nM
15 | CS(=O)(=O)Cc1cccc(Nc2ncnc(-c3ccc(F)cc3OCC3CC3)n2)c1 [Example 55, 4-[2-(Cyclopropylmethoxy)-4-fluorophenyl]-N-{3-[(methylsulfonyl)methyl]phenyl}-1,3,5-triazin-2-amine] | 15 nM | 490 nM
16 | CS(=O)(=O)Cc1cccc(Nc2ncnc(-c3ccc(F)cc3OCCCC(F)(F)F)n2)c1 [Example 59, 4-[4-Fluoro-2-(4,4,4-trifluorobutoxy)phenyl]-N-{3-[(methylsulfonyl)methyl]phenyl}-1,3,5-triazin-2-amine] | 5 nM | 350 nM
17 | CS(=O)(=O)Cc1cccc(Nc2ncnc(-c3ccc(F)cc3OCCF)n2)c1 [Example 61, 4-[4-Fluoro-2-(2-fluoroethoxy)phenyl]-N-{3-[(methylsulfonyl)methyl]phenyl}-1,3,5-triazin-2-amine] | 8 nM | 610 nM
18 | CC#CCOc1cc(F)ccc1-c1ncnc(Nc2cccc(CS(C)(=O)=O)c2)n1 [Example 62, 4-[2-(But-2-yn-1-yloxy)-4-fluorophenyl]-N-{3-[(methylsulfonyl)methyl]phenyl}-1,3,5-triazin-2-amine] | 3 nM | 160 nM
19 | Cc1cccc(COc2cc(F)ccc2-c2ncnc(Nc3cccc(CS(C)(=O)=O)c3)n2)c1 [Example 83, 4-{4-Fluoro-2-[(3-methylbenzyl)oxy]phenyl}-N-{3-[(methylsulfonyl)-methyl]phenyl}-1,3,5-triazin-2-amine] | 5 nM | 380 nM
20 | CS(=O)(=O)Cc1cccc(Nc2ncnc(-c3ccc(F)cc3OCc3cccc(Cl)c3)n2)c1 [Example 85, 4-{2-[(3-Chlorobenzyl)oxy]-4-fluorophenyl}-N-{3-[(methylsulfonyl)methyl]phenyl}-1,3,5-triazin-2-amine] | 7 nM | 360 nM
21 | Cc1cc(COc2cc(F)ccc2-c2ncnc(Nc3cccc(CS(C)(=O)=O)c3)n2)ccn1 [Example 87, 4-{4-Fluoro-2-[(2-methylpyridin-4-yl)methoxy]-phenyl}-N-{3-[(methylsulfonyl)methyl]phenyl}-1,3,5-triazin-2-amine] | 6 nM | 340 nM
22 | CS(=O)(=O)Cc1cccc(Nc2ncnc(-c3ccc(F)cc3OCc3ccnc(Cl)c3)n2)c1 [Example 88, 4-{2-[(2-Chloropyridin-4-yl)methoxy]-4-fluorophenyl}-N-{3-[(methylsulfonyl)-methyl]phenyl}-1,3,5-triazin-2-amine] | 4 nM | 210 nM
23 | CS(=O)(=O)Cc1cccc(Nc2ncnc(-c3ccc(F)cc3OCc3ccncc3)n2)c1 [Example 89, 4-[4-Fluoro-2-(pyridin-4-ylmethoxy)phenyl]-N-{3-[(methylsulfonyl)methyl]phenyl}-1,3,5-triazin-2-amine] | 5 nM | 170 nM
24 | CS(=O)(=O)Cc1cccc(Nc2ncnc(-c3ccc(F)cc3OCc3ccc(C#N)cc3)n2)c1 [Example 90, 4-({5-Fluoro-2-[4-({3-[(methylsulfonyl)methyl]phenyl}amino)-1,3,5-triazin-2-yl]phenoxy}methyl)-benzonitrile] | 3 nM | 60 nM
